# Measurements from ChEMBL document CHEMBL6121066, “Structure-Activity Relationship Studies of DNA Methyltransferase 1 Monovalent Degraders” (J Med Chem, 2025).
# Active and inactive are the calls of the source. No cut-off for these calls is given here.
# How the values were obtained:
# HCT-116 [1] = test: Downregulation of DNMT1 protein level in human HCT-116 cells at 1 uM incubated for 12 hrs by MS-based global proteomic analysis; format: functional, cell-based
# HCT-116 [2] = test: Induction of molecular glue effect mediated DNMT1 degradation in human HCT-116 cells assessed as reduction in DNMT1 protein level at 100 nM preincubated with lysosome inhibitor CQ for 2 hrs followed by compound addition and measured after 24 hrs by Western blot analysis; format: cell-based
smiles,measurement,setting,value
CCc1c(C#N)c(SC(C(N)=O)c2ccccc2)nc(N(C)CC(=O)NC)c1C#N (configuration not stated),Activity,HCT-116 [1],Active
same,Activity,HCT-116 [2],Active
